Laboratory results reported in the supplement of paper PMC11451515.

Test system: P12-Ichikawa
Assay: cell viability relative to DMSO control; higher = less cytotoxic
Conditions: 48 h
Method in brief: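 Library compounds in DMSO were pin-dosed in an 11-point threefold series (47 μM to 0.79 nM) onto leukemia cells in 1536-well plates (5 μl). Plates held 500 cells/well of NOMO1 or SEM or 1000 cells/well of P12-Ichikawa, each adapted for at least four passages in each medium. Luminescence was read with CellTiter-Glo One after 48 h at 37°C. Viability means the per-plate percentage relative to DMSO wells, using cell-free wells as background.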

[1] = HPLM + 10% dialyzed FBS, 0.000781 µM
[2] = HPLM + 10% dialyzed FBS, 0.00234 µM
[3] = HPLM + 10% dialyzed FBS, 0.00702 µM
[4] = HPLM + 10% dialyzed FBS, 0.0211 µM
[5] = HPLM + 10% dialyzed FBS, 0.0632 µM
[6] = HPLM + 10% dialyzed FBS, 0.19 µM
[7] = HPLM + 10% dialyzed FBS, 0.569 µM
[8] = HPLM + 10% dialyzed FBS, 1.71 µM
[9] = HPLM + 10% dialyzed FBS, 5.12 µM
[10] = HPLM + 10% dialyzed FBS, 15.4 µM
[11] = HPLM + 10% dialyzed FBS, 46.1 µM
[12] = RPMI 5 mM glucose + 10% FBS, 0.000781 µM
[13] = RPMI 5 mM glucose + 10% FBS, 0.00234 µM
[14] = RPMI 5 mM glucose + 10% FBS, 0.00702 µM
[15] = RPMI 5 mM glucose + 10% FBS, 0.0211 µM
[16] = RPMI 5 mM glucose + 10% FBS, 0.0632 µM
[17] = RPMI 5 mM glucose + 10% FBS, 0.19 µM
[18] = RPMI 5 mM glucose + 10% FBS, 0.569 µM
[19] = RPMI 5 mM glucose + 10% FBS, 1.71 µM
[20] = RPMI 5 mM glucose + 10% FBS, 5.12 µM
[21] = RPMI 5 mM glucose + 10% FBS, 15.4 µM
[22] = RPMI 5 mM glucose + 10% FBS, 46.1 µM
[23] = RPMI 5 mM glucose + 10% dialyzed FBS, 0.000781 µM
[24] = RPMI 5 mM glucose + 10% dialyzed FBS, 0.00234 µM
[25] = RPMI 5 mM glucose + 10% dialyzed FBS, 0.00702 µM
[26] = RPMI 5 mM glucose + 10% dialyzed FBS, 0.0211 µM
[27] = RPMI 5 mM glucose + 10% dialyzed FBS, 0.0632 µM
[28] = RPMI 5 mM glucose + 10% dialyzed FBS, 0.19 µM
[29] = RPMI 5 mM glucose + 10% dialyzed FBS, 0.569 µM
[30] = RPMI 5 mM glucose + 10% dialyzed FBS, 1.71 µM
[31] = RPMI 5 mM glucose + 10% dialyzed FBS, 5.12 µM
[32] = RPMI 5 mM glucose + 10% dialyzed FBS, 15.4 µM
[33] = RPMI 5 mM glucose + 10% dialyzed FBS, 46.1 µM

Row | SMILES | cell viability [1] [%] | cell viability [2] [%] | cell viability [3] [%] | cell viability [4] [%] | cell viability [5] [%] | cell viability [6] [%] | cell viability [7] [%] | cell viability [8] [%] | cell viability [9] [%] | cell viability [10] [%] | cell viability [11] [%] | cell viability [12] [%] | cell viability [13] [%] | cell viability [14] [%] | cell viability [15] [%] | cell viability [16] [%] | cell viability [17] [%] | cell viability [18] [%] | cell viability [19] [%] | cell viability [20] [%] | cell viability [21] [%] | cell viability [22] [%] | cell viability [23] [%] | cell viability [24] [%] | cell viability [25] [%] | cell viability [26] [%] | cell viability [27] [%] | cell viability [28] [%] | cell viability [29] [%] | cell viability [30] [%] | cell viability [31] [%] | cell viability [32] [%] | cell viability [33] [%]
1 | CCCCCCCCCCCCCCCCCCOP(=O)([O-])OC1CC[N+](C)(C)CC1 | 112 | 111 | 114 | 113 | 111 | 109 | 121 | 114 | 106 | 104 | 112 | 104 | 106 | 99.9 | 87 | 107 | 111 | 113 | 124 | 103 | 105 | 95.3 | 105 | 110 | 126 | 78.2 | 111 | 110 | 115 | 121 | 110 | 105 | 113
2 | O=C(CCc1ccc(O)cc1)c1c(O)cc(O)cc1O[C@@H]1O[C@H](CO)[C@@H](O)[C@H](O)[C@H]1O | 96.3 | 96.6 | 94.1 | 92.8 | 88 | 96.3 | 86.2 | 84 | 85.1 | 81.9 | 85.5 | 90.2 | 85.4 | 86.5 | 86.5 | 82.4 | 83.6 | 88.1 | 82.6 | 82.5 | 81.6 | 86.1 | 84.1 | 84.3 | 95 | 93.9 | 82.8 | 85.1 | 81.8 | 89.3 | 83.2 | 80.2 | 82.8
3 | COc1ccc2c(c1OC)CN1CCc3cc4c(cc3C1C2)OCO4 (stereo not given) | 94.5 | 96.2 | 101 | 104 | 101 | 99.8 | 97.2 | 77 | 15.9 | 6.51 | 6.63 | 86.1 | 87 | 92.7 | 93.9 | 94 | 89 | 86.7 | 53.6 | 17.7 | 5.68 | 4.82 | 84.8 | 87.7 | 92.6 | 94.4 | 92.5 | 83.2 | 83.5 | 52.9 | 13.4 | 7.72 | 6.88
4 | C=CCn1c(=O)c2cnc(Nc3ccc(N4CCN(C)CC4)cc3)nc2n1-c1cccc(C(C)(C)O)n1 | 120 | 116 | 121 | 125 | 110 | 111 | 99.3 | 43.7 | 17 | 15.9 | 17.4 |  |  |  |  |  |  |  |  |  |  |  |  |  |  |  |  |  |  |  |  |  | 
5 | C[S+]([O-])c1ccc(-c2nc(-c3ccc(F)cc3)c(-c3ccncc3)[nH]2)cc1 (stereo not given) | 103 | 102 | 97.3 | 111 | 109 | 108 | 107 | 93.6 | 53.5 | 3.78 | 1.78 | 93.8 | 92.2 | 103 | 99 | 102 | 92.8 | 102 | 64.2 | 46.6 | 3.17 | 1.83 | 96.6 | 103 | 99.7 | 97.3 | 98.7 | 99.4 | 98.6 | 74.2 | 45.4 | 3.69 | 2.1
6 | CO[C@H]1C[C@@H]2CC[C@@H](C)[C@@](O)(O2)C(=O)C(=O)N2CCCC[C@H]2C(=O)O[C@H]([C@H](C)C[C@@H]2CC[C@@H](OCCO)[C@H](OC)C2)CC(=O)[C@H](C)/C=C(/C)[C@@H](O)[C@@H](OC)C(=O)[C@H](C)C[C@H](C)\C=C/C=C\C=C/1C | 101 | 109 | 104 | 94.1 | 99.9 | 98.9 | 96.5 | 86.6 | 76.7 | 44.7 | 50.3 | 82.5 | 94 | 89.6 | 79.2 | 77.8 | 77.7 | 68.8 | 70.6 | 51.8 | 25.7 | 26.1 | 90.8 | 99.1 | 93.7 | 84.9 | 85.8 | 87.1 | 80.5 | 78.1 | 51.4 | 33.4 | 33.9
7 | O=C1CCc2ccc(OCCCCN3CCN(c4cccc(Cl)c4Cl)CC3)cc2N1 | 99 | 101 | 99.7 | 85 | 110 | 98.9 | 104 | 104 | 89.9 | 106 | 87.3 | 106 | 110 | 106 | 74.3 | 107 | 101 | 102 | 100 | 106 | 105 | 78.3 | 92.8 | 98.9 | 96.9 | 80.5 | 98.7 | 106 | 100 | 89.2 | 93.6 | 94.1 | 73.1
8 | CC(C)[C@H](CO)Nc1nc(Nc2cccc(Cl)c2)c2ncn(C(C)C)c2n1 | 98.7 | 112 | 113 | 115 | 113 | 112 | 107 | 104 | 45.9 | 26.6 | 8.74 | 110 | 109 | 120 | 124 | 125 | 115 | 118 | 118 | 76 | 42 | 10.2 | 97.7 | 110 | 112 | 117 | 115 | 106 | 93.4 | 102 | 58.5 | 18.2 | 4.68
9 | Cc1cc(O)c2c(c1)C(=O)c1cc(O)cc(O)c1C2=O | 99.9 | 107 | 99.6 | 104 | 110 | 103 | 110 | 105 | 95.3 | 94.2 | 100 | 100 | 99.2 | 107 | 96.4 | 108 | 104 | 99.1 | 103 | 102 | 90.6 | 86.6 | 91.5 | 92.2 | 88.8 | 97.7 | 99.8 | 97.1 | 96.4 | 90.8 | 97 | 94 | 84.8
10 | O=C1NC(O)CCN1[C@@H]1O[C@H](CO)[C@@H](O)[C@H]1O (stereo not given in full) | 118 | 127 | 120 | 116 | 128 | 129 | 122 | 106 | 102 | 110 | 112 |  |  |  |  |  |  |  |  |  |  |  | 118 | 119 | 131 | 124 | 116 | 120 | 120 | 121 | 110 | 115 | 107
11 | NC\1=N\C(=O)N(\C=C1)[C@H]\2[C@H](O)[C@H](O)C(=C2F)\CO | 95.2 | 106 | 104 | 105 | 105 | 106 | 104 | 60 | 28 | 19.3 | 16.5 | 89.4 | 96.8 | 96.3 | 106 | 103 | 114 | 101 | 95.7 | 47.8 | 29.1 | 16.9 | 91.8 | 114 | 114 | 116 | 115 | 108 | 100 | 89.4 | 67.9 | 23.4 | 11.4
12 | O=c1[nH]cnc2c1ncn2[C@H]1CC[C@@H](CO)O1 | 95.9 | 101 | 107 | 102 | 99.6 | 105 | 108 | 112 | 105 | 99.6 | 74.1 | 83.3 | 97.3 | 94.6 | 109 | 96.1 | 101 | 104 | 108 | 102 | 91.7 | 65.5 | 83.7 | 101 | 94.3 | 90.1 | 96.8 | 96.5 | 96 | 104 | 97.1 | 84 | 67.1
13 | CN(C)C[C@@H]1CC[N]2C=C(C3=C2C=CC=C3)C/4=C(/C(=O)NC4=O)C5=C[N](CCO1)C6=C5C=CC=C6 | 99.6 | 98.3 | 100 | 106 | 105 | 110 | 107 | 100 | 101 | 97.5 | 30.7 | 92.9 | 94.8 | 100 | 98.6 | 108 | 104 | 95.7 | 96.2 | 97.6 | 83.4 | 55.3 | 110 | 106 | 108 | 109 | 103 | 102 | 114 | 117 | 105 | 93.7 | 58.9
14 | O=C(NNC(=O)c1ccc(CN[S+](=O)([O-])c2ccc(F)c(Cl)c2)cc1)c1ccccc1 | 97.4 | 106 | 104 | 99 | 109 | 107 | 107 | 109 | 113 | 105 | 113 | 99.8 | 101 | 98.7 | 96.5 | 112 | 100 | 106 | 98.6 | 91.6 | 114 | 105 | 87 | 98.3 | 98.3 | 102 | 103 | 98.1 | 102 | 103 | 103 | 107 | 101
15 | CC(C)(C)c1cc(C(=O)O)c(NC(=O)Nc2ccc3[nH]ncc3c2)s1 | 93.9 | 102 | 88.8 | 97.4 | 91.7 | 91.5 | 85.9 | 89.6 | 89.9 | 85.5 | 80.6 | 92.9 | 90.5 | 92.4 | 97.8 | 91.4 | 98.4 | 87.9 | 79.6 | 88.2 | 84.7 | 73.1 | 93.5 | 96.7 | 93 | 97.8 | 97.2 | 88.8 | 90 | 86.2 | 87.8 | 87.3 | 91
16 | CCNC(=O)[C@H]1O[C@@H](n2cnc3c(N)nc(NCCc4ccc(CCC(=O)O)cc4)nc32)[C@H](O)[C@@H]1O | 108 | 97.9 | 101 | 106 | 109 | 101 | 106 | 103 | 104 | 96.8 | 96.1 | 105 | 102 | 96.2 | 102 | 102 | 97.5 | 99.9 | 99.6 | 96.4 | 93.3 | 92.2 | 106 | 98.9 | 107 | 99.8 | 105 | 97.2 | 108 | 91.3 | 101 | 95.9 | 93.3
